pKi: −log10 of the molar value. Counter-ions that a name gives are not always drawn. Marks after values point to notes of the source that are not given here.
Tests used:
[1] = test system: adrenaline-induced arrhythmia in rats; assay: Prophylactic antiarrhythmic activity in adrenaline-induced arrhythmia; assay type: in vivo, rat
Experimental: The studied compounds were administered i.p. 45 min before the injection of adrenaline, calcium chloride, or barium chloride. The electrocardiogram (ECG) was recorded during the first 2 min as well as in the 5th, 10th, and 15th min after the arrhythmogen injection. […]

[2] = test system: normal ECG in rats; assay: The effect on normal electrocardiogram in rats; assay type: in vivo, rat; details: anesthetized rats
Experimental: The experiment was carried out to exclude the influence of tested compounds on normal ECG. […] The influence on QRS complex, PQ interval, heart rate (RR), and QTc interval was determined.

[3] = target: T1, α1B-adrenoceptors (Mus musculus, UniProt P97717); assay: Functional bioassay, isolated mouse spleen, noradrenaline contraction; assay type: biochemical; details: noradrenaline as agonist
T1 construct: The spleen was removed from male mice; from tissue; host or cells: isolated mouse spleen
T1 sequence (P97717 1-514): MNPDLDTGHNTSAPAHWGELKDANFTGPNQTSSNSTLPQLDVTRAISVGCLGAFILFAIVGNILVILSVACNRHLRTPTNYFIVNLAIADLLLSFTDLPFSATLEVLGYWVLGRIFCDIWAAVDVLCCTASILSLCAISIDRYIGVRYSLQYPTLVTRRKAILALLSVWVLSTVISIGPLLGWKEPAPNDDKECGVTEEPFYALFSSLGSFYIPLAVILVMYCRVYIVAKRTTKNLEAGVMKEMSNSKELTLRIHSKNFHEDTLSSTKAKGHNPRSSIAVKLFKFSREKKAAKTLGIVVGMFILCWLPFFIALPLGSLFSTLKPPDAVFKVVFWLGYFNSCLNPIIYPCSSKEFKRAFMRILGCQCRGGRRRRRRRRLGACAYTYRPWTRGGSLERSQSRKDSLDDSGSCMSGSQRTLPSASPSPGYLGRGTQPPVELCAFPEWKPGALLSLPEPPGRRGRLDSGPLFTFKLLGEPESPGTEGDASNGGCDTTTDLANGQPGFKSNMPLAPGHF
Experimental: The influence on α1B-adrenoceptors was evaluated using the isolated mouse spleen. The spleen was removed from male mice right after killing the anesthetized animal by cervical dislocation. […] The initial optimal tissues tension was set at 1.0 g. Through the 100 min of equilibration tissues were stimulated with noradrenaline (0.1−10.0 μM) three times with washing out until the contractile response become constant. Two cumulative concentration-response curves to noradrenaline, at an interval of 60 min, were established on each tissue both in the presence and absence of antagonist. The incubation with antagonists went on for 30 min. The experiments were carried out in the constant presence of propranolol (1 μM) to block β-adrenoceptors, and minimize the involvement of these adrenoceptors in the response to noradrenaline.
Data are means ± S.E.M. of at least 4 separate experiments. To establish Hill slopes for the agonist concentration–response curves and calculate EC50 values, curves were fitted to all the data by non-linear regression. The EC50 value in the presence and absence of antagonists was used to ascertain the concentration ratio (CR). Schild analysis was performed.

[4] = target: T2, β1-adrenergic receptor (Rattus norvegicus, UniProt P18090); assay: β1-adrenoceptor radioligand binding assay ([3H]-CGP-12177, rat cerebral cortex); details: read-out: Adrenergic receptors Ki β1
T2 construct: The brains were homogenized in 20 volumes of an ice-cold 50 mM Tris-HCl buffer; from tissue; host or cells: rat cerebral cortex membranes
T2 sequence (P18090 whole entry): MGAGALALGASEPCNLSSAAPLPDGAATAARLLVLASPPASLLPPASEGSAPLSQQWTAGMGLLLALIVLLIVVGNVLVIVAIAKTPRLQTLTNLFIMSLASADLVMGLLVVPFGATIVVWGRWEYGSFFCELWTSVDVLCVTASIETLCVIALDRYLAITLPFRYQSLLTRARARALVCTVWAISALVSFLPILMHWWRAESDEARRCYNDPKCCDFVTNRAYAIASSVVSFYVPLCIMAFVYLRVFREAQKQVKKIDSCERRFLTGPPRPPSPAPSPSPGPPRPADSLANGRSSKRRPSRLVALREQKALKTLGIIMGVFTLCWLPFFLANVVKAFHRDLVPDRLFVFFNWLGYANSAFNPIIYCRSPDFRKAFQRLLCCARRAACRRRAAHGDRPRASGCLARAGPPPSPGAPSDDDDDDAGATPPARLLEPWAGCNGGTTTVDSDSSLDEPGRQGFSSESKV
Experimental: The α1- and β1-adrenoceptor radioligand binding assay was performed on rat cerebral cortex. […] The cell pellet was resuspended in the Tris–HCl buffer and centrifuged again. Radioligand binding assays were performed in plates (MultiScreen/Millipore). […] The incubation was terminated by rapid filtration through glass fiber filters (Whatman GF/C) using a vacuum manifold (Millipore). The filters were then washed twice with the assay buffer and placed in scintillation vials with a liquid scintillation cocktail. […] All the assays were made in duplicate and the inhibitory constants (Ki) were estimated.
LO–labeled ligand concentration, KD–dissociation constant of labeled ligand

[5] = test system: lipid peroxidation in rat brain homogenate; assay: Lipid peroxidation in rat brain homogenate (TBARS), antioxidant effect; assay type: biochemical; details: 10^−3 M
[6] = dose 0.1 mg/kg i.p. 45 min before adrenaline 20 μg/kg i.v.
[7] = dose 0.2 mg/kg i.p. 45 min before adrenaline 20 μg/kg i.v.
[8] = dose 0.3 mg/kg i.p. 45 min before adrenaline 20 μg/kg i.v.
[9] = i.p. at ED84, 0 min (initial values)

With `COc1ccccc1N1CCN(CCCOc2cc(C)cc(C)c2C)CC1` [HBK-19, 1N-[3-(2,3,5-trimethylphenoxy)propyl]-4N-(2-methoxyphenyl)piperazine hydrochloride] as the compound, how does the ED50 ([1]; Rattus norvegicus, read-out: ED50 (confidence limits)) read?
Its ED50 is 0.21 mg/kg.

What about the “Bigeminy (%)” value [1, 6] of the same compound?
The value was 33.3%.

What about the “Blocks (%)” value [1, 6] of the same compound?
The value was 50.0%.

What about the “Bradycardia (%)” value [1, 6] of the same compound?
The value was 66.7%.

What about the “Extrasystoles (%)” value [1, 6] of the same compound?
Its value is 66.7%.

What about the “Bigeminy (%)” value [1, 7] of the same compound?
Its value is 16.7%.

And the “Blocks (%)” value [1, 7]?
The value was 33.3%.

What about the “Bradycardia (%)” value [1, 7] of the same compound?
The value was 33.3%.

And the “Extrasystoles (%)” value [1, 7]?
The value was 50.0%.

And the “Blocks (%)” value [1, 8]?
Its value is 16.7%.

And the “Bradycardia (%)” value [1, 8]?
Its value is 16.7%.

And the “Extrasystoles (%)” value [1, 8]?
The value was 16.7%.

What about the “influence on ECG parameters (PQ interval, QRS complex, QTc interval)” value ([2]; i.p. at ED84) of the same compound?
The value was “without the influence on PQ interval, QRS complex, or QTc interval”.

And the “reduction of heart rate” value ([2]; i.p. at ED84, over the period of significant effect vs. initial values)?
The value was 21−22%.

What about the “Beats/min (ECG)” value [2, 9] of the same compound?
The value was 355.3 ± 19.7 Beats/min.

What about the “PQ (ECG)” value [2, 9] of the same compound?
The value was 56.7 ± 0.7 ms.

And the “QRS (ECG)” value [2, 9]?
The value was 35.7 ± 1.0 ms.

What about the “QT (ECG)” value [2, 9] of the same compound?
Its value is 76.4 ± 8.2 ms.

And the “QTc (ECG, Bazett)” value [2, 9]?
Its value is 186.9 ± 24.6 ms.

And the “Beats/min (ECG)” value ([2]; i.p. at ED84, 5 min)?
Its value is 349.7 ± 25.3 Beats/min.

And the “PQ (ECG)” value ([2]; i.p. at ED84, 5 min)?
Its value is 56.6 ± 0.0 ms.

What about the “QRS (ECG)” value ([2]; i.p. at ED84, 5 min) of the same compound?
Its value is 34.7 ± 1.6 ms.

And the “QT (ECG)” value ([2]; i.p. at ED84, 5 min)?
The value was 76.9 ± 1.1 ms.

What about the “QTc (ECG, Bazett)” value ([2]; i.p. at ED84, 5 min) of the same compound?
The value was 185.5 ± 9.5 ms.

What about the “Beats/min (ECG)” value ([2]; i.p. at ED84, 10 min) of the same compound?
Its value is 339.1 ± 21.0 Beats/min.

And the “PQ (ECG)” value ([2]; i.p. at ED84, 10 min)?
Its value is 56.0 ± 0.0 ms.

What about the “QRS (ECG)” value ([2]; i.p. at ED84, 10 min) of the same compound?
The value was 34.0 ± 0.3 ms.

And the “QT (ECG)” value ([2]; i.p. at ED84, 10 min)?
The value was 77.5 ± 0.5 ms.

What about the “QTc (ECG, Bazett)” value ([2]; i.p. at ED84, 10 min) of the same compound?
The value was 184.2 ± 6.9 ms.

And the “Beats/min (ECG)” value ([2]; i.p. at ED84, 15 min)?
Its value is 280.1 ± 1.1^c Beats/min.

What about the “PQ (ECG)” value ([2]; i.p. at ED84, 15 min) of the same compound?
Its value is 58.2 ± 1.8 ms.

And the “QRS (ECG)” value ([2]; i.p. at ED84, 15 min)?
Its value is 32.0 ± 1.2 ms.

What about the “QT (ECG)” value ([2]; i.p. at ED84, 15 min) of the same compound?
Its value is 82.2 ± 2.2 ms.

And the “QTc (ECG, Bazett)” value ([2]; i.p. at ED84, 15 min)?
The value was 177.6 ± 4.4 ms.

And the “Beats/min (ECG)” value ([2]; i.p. at ED84, 20 min)?
The value was 277.2 ± 5.0^c Beats/min.

What about the “PQ (ECG)” value ([2]; i.p. at ED84, 20 min) of the same compound?
The value was 60.1 ± 1.3 ms.

And the “QRS (ECG)” value ([2]; i.p. at ED84, 20 min)?
Its value is 32.7 ± 0.4 ms.

And the “QT (ECG)” value ([2]; i.p. at ED84, 20 min)?
The value was 84.3 ± 1.1 ms.

And the “QTc (ECG, Bazett)” value ([2]; i.p. at ED84, 20 min)?
The value was 181.1 ± 4.1 ms.

And the “Beats/min (ECG)” value ([2]; i.p. at ED84, 30 min)?
Its value is 278.2 ± 6.7^c Beats/min.

And the “PQ (ECG)” value ([2]; i.p. at ED84, 30 min)?
The value was 60.1 ± 1.7 ms.

And the “QRS (ECG)” value ([2]; i.p. at ED84, 30 min)?
The value was 34.3 ± 0.2 ms.

And the “QT (ECG)” value ([2]; i.p. at ED84, 30 min)?
The value was 82.2 ± 0.4 ms.

What about the “QTc (ECG, Bazett)” value ([2]; i.p. at ED84, 30 min) of the same compound?
The value was 177.0 ± 3.0 ms.

And the “Beats/min (ECG)” value ([2]; i.p. at ED84, 40 min)?
Its value is 332.8 ± 18.9 Beats/min.

What about the “PQ (ECG)” value ([2]; i.p. at ED84, 40 min) of the same compound?
The value was 59.3 ± 0.7 ms.

What about the “QRS (ECG)” value ([2]; i.p. at ED84, 40 min) of the same compound?
The value was 32.0 ± 3.1 ms.

What about the “QT (ECG)” value ([2]; i.p. at ED84, 40 min) of the same compound?
The value was 81.5 ± 2.5 ms.

What about the “QTc (ECG, Bazett)” value ([2]; i.p. at ED84, 40 min) of the same compound?
The value was 192.2 ± 11.2 ms.

What about the “Beats/min (ECG)” value ([2]; i.p. at ED84, 50 min) of the same compound?
The value was 396.8 ± 31.8 Beats/min.

What about the “PQ (ECG)” value ([2]; i.p. at ED84, 50 min) of the same compound?
Its value is 55.1 ± 0.3 ms.

And the “QRS (ECG)” value ([2]; i.p. at ED84, 50 min)?
The value was 36.0 ± 1.5 ms.

What about the “QT (ECG)” value ([2]; i.p. at ED84, 50 min) of the same compound?
The value was 76.5 ± 0.5 ms.

What about the “QTc (ECG, Bazett)” value ([2]; i.p. at ED84, 50 min) of the same compound?
The value was 196.2 ± 6.9 ms.

What about the “Beats/min (ECG)” value ([2]; i.p. at ED84, 60 min) of the same compound?
Its value is 398.0 ± 32.4 Beats/min.

And the “PQ (ECG)” value ([2]; i.p. at ED84, 60 min)?
The value was 56.3 ± 1.1 ms.

And the “QRS (ECG)” value ([2]; i.p. at ED84, 60 min)?
The value was 30.3 ± 1.1 ms.

And the “QT (ECG)” value ([2]; i.p. at ED84, 60 min)?
Its value is 80.2 ± 0.4 ms.

And the “QTc (ECG, Bazett)” value ([2]; i.p. at ED84, 60 min)?
The value was 206.3 ± 9.6 ms.

And the “Schild slope ± S.E.M., α1B” value [3]?
The value was 1.06 ± 0.05.

And the Kb ([3]; read-out: pA2 ± S.E.M., α1B (converted))?
Its Kb is 8.51 nM.

And the pKi [4]?
Its pKi is under 5.00.

What about the “inhibition of lipid peroxidation (in words)” value [5] of the same compound?
Its value is “inhibited lipid peroxidation”.

What about the “% reduction of absorbance (% antioxidant activity)” value ([5]; TBARs at 532 nm) of the same compound?
Its value is 22.62%.

And the Absorbance ([5]; TBARs at 532 nm)?
Its Absorbance is 0.698 ± 0.007.

— article PMC4971072, “Chemically Homogenous Compounds with Antagonistic Properties at All α1-Adrenoceptor Subtypes but not β1-Adrenoceptor Attenuate Adrenaline-Induced Arrhythmia in Rats” (Frontiers in Pharmacology, 2016)
